Experimental data reported in patent publication EP0960190B1, “IMI[…] RESISTANT SUGAR BEET PLANTS” (Michigan State University, priority 1996, dated 1998).
Read-outs that look alike come from different tables or passages of the source.

Experiments:
93R30B [1] = assay: Shoot culture herbicide resistance (shoot injury and fresh weight on M20 media); assay type: cell-based, Beta vulgaris L.; conditions: for R/S / IC50: 93R30B; for R/S: ratio of resistant to sensitive control (Rel-1) I50 values, shoot culture; for R/S / level of resistance: 30240 min; for IC50: herbicide concentration causing 50% injury to the shoot culture, 3 weeks, read-out: I50; for level of resistance: 93R30B in shoot culture
Procedure: (§1) In step 7, shoot cultures were assessed for herbicide resistance by placing three small, consistently sized shoot cuttings on each plate of M20 media supplemented with logarithmically increasing concentrations of imidazolinone herbicide, sulfonylurea or triazolopyrimidine sulfonanilide ranging from 1 nM to 0.1 mM. 93R30 culture responses were compared to that of shoot cultures of a sensitive control (Rel-1) and a chlorsulfuron resistant, imidazolinone sensitive control (EL-49). Shoot cultures were maintained at 20 µE/m^2 s light intensity at 25°C for 3 weeks. Shoot culture was determined by rating shoot injury and fresh weight 3 weeks after transfer to selective media. Magnitude of herbicide resistance was determined by the ratio of resistant to sensitive I50 values (the herbicide concentration causing 50 percent injury).

Rel-1 [2] = assay: as above; assay type: cell-based, Beta vulgaris L.; conditions: Rel-1 sensitive control, herbicide concentration causing 50% injury to the shoot culture, 3 weeks, read-out: I50
Procedure: as §1

EL-49 = assay: as above; assay type: cell-based, Beta vulgaris L.; conditions: for IC50 / R/S: EL-49; for IC50: herbicide concentration causing 50% injury to the shoot culture, 3 weeks, read-out: I50; for R/S: ratio of resistant to sensitive control (Rel-1) I50 values, shoot culture
Procedure: as §1

Sur = assay: Whole plant sugarbeet response to postemergence ALS-inhibiting herbicides; assay type: in vivo, Beta vulgaris L.; conditions: for R/S: Sur whole plant, postemergence, relative to Rel-1
Sir-13 = assay: as above; assay type: in vivo, Beta vulgaris L.; conditions: for R/S: Sir-13 whole plant, postemergence, relative to Rel-1
Rel-1 [3] = assay: as above; assay type: in vivo, Beta vulgaris L.; conditions: Rel-1 whole plant, herbicide applied postemergence
93R30B [4] = assay: as above; assay type: in vivo, Beta vulgaris L.; conditions: for R/S: 93R30B (SB) whole plant, postemergence, relative to Rel-1
ALS extracts from 93R30B = assay: ALS enzyme activity assay in leaf extracts (acetoin colorimetry); assay type: biochemical, Beta vulgaris L.; conditions: for resistance of the ALS enzyme: SB double mutant ALS enzyme in vitro
Procedure: Standard procedures were utilized to partially purify ALS from rapidly expanding leaves of greenhouse-grown sugar beet plants (Hart, et al. Weed Science 40:378-383 (1992)). Extracts from heterozygous 93R30B F1 plants and Rel-1 S1 seed were assayed for ALS activity in the presence of logarithmically increasing concentrations of imazethapyr. ALS activity was determined from leaf extracts of REL-1 and 93R30B sugarbeet lines. Plants were grown in the greenhouse as described above to the four to six leaf stage. ALS activity from fresh extracts was determined in the presence of imazethapyr and chlorsulfuron at logarithmically increasing concentrations. The methods and procedures used were modified from those outlined by Ray (Plant Physiol. 75:827-831 (1984)) and Shaner, et al. (Plant Physiol. 76:545-546 (1984)). Ten g of sugarbeet leaves were homogenized in 40 ml cold homogenization buffer (0.1 M K2HPO4, pH 7.5, 1 mM sodium pyruvate, 0.5 mM MgCl2, 0.5 mM thiamine pyrophosphate, 10 µM of flavin adenine dinucleotide, 10% by vol glycerol) plus 2.5 g polyvinylpolypyrolidone. The homogenate was filtered through eight layers of cheesecloth and centrifuged at 27,000 g for 20 minutes. The supernatant was removed and brought to 50% saturation with (NH4)2SO4. […]
(§2) ALS activity is measured by adding 0.2 ml of enzyme preparation (diluted 3:1 with resuspension buffer) to 1.3 ml of reaction buffer (25 mM K2HPO4, pH 7.0, 0.625 mM MgCl2, 25 mM sodium pyruvate, 0.625 mM thiamine pyrophosphate, 1.25 µM flavin adenine dinucleotide) and incubated at 35°C for 1 hour. […]
Purchased acetoin was used as a standard for the colorimetric reaction. Acetoin concentrations were determined by measuring the absorption of the reaction solution at 530 nm. […] Protein concentrations of the extracts was determined by the method of Bradford (Anal. Biochem. 72:248-254 (1976)) using bovine serum albumin for the standard curve. […]

ALS enzyme from Sir-13 = assay: as above; assay type: biochemical, Beta vulgaris L.; conditions: Sir-13 single mutant ALS enzyme in vitro
ALS enzyme from Sur = assay: as above; assay type: biochemical, Beta vulgaris L.; conditions: Sur single mutant ALS enzyme in vitro
Procedure: Standard procedures were utilized to partially purify ALS from rapidly expanding leaves of greenhouse-grown sugar beet plants (Hart, et al. Weed Science 40:378-383 (1992)). Extracts from heterozygous 93R30B F1 plants and Rel-1 S1 seed were assayed for ALS activity in the presence of logarithmically increasing concentrations of imazethapyr. ALS activity was determined from leaf extracts of REL-1 and 93R30B sugarbeet lines. Plants were grown in the greenhouse as described above to the four to six leaf stage. ALS activity from fresh extracts was determined in the presence of imazethapyr and chlorsulfuron at logarithmically increasing concentrations. […]
as §2
Purchased acetoin was used as a standard for the colorimetric reaction. Acetoin concentrations were determined by measuring the absorption of the reaction solution at 530 nm. […] Protein concentrations of the extracts was determined by the method of Bradford (Anal. Biochem. 72:248-254 (1976)) using bovine serum albumin for the standard curve.

sensitive cells = assay: Cell selection on herbicide-supplemented solid B1 media; assay type: cell-based, Beta vulgaris L.; conditions: 50 nM in solid B1 media, 8-12 weeks, dim fluorescent light
Source text: Rel-1 (Regenerating East Lansing-1) is a highly regenerable male fertile sugar beet line used for initial cell selection for herbicide-resistant mutant to the sulfonylureas and is used as a sensitive control for most experiments. CR1-B This sugar beet isolate was developed by plating Rel-1 cells on chlorsulfuron-containing media. This variant is sulfonylurea resistant with modest resistance to the triazolopyrimidine herbicide, flumetsulam, but no imidazolinone resistance. This variant has been described by Saunders et al. (Crop Sci. 32:1357-1360) and Hart et al. (Weed Sci. 40:378-383 and 41:317-324). The SU resistance gene has been labeled Sur. 93R30B This isolate was developed by plating cells of a highly regenerable, Sur homozygous sugar beet plant (descendant of CR1-B) on media containing imazethapyr. EL-49 East Lansing 49, released by the USDA in 1993. Sugar beet line homozygous for the Sur gene, used for a sulfonylurea-resistant, imazethapyr- sensitive control. • a. Plants were selected as source materials for somaclonal selection based on their ability to generate callus under high cytokinin conditions (in B1 media) and regenerate shoots from callus. […]

Compound | R/S (93R30B [1]) [X] | IC50 (93R30B [1]; Beta vulgaris, 504 h) [nM] | IC50 (Rel-1 [2]; Beta vulgaris, 504 h) [nM] | IC50 (EL-49; Beta vulgaris, 504 h) [nM] | R/S (EL-49; 30240 min) [X] | R/S (Sur) [X] | level of resistance (93R30B [1]) | R/S (Sir-13) [X] | I50 (Rel-1 [3]) [g ha^-1] | R/S (93R30B [4]) [X] | also measured
CC(C)C1(C)N=C(c2nc3ccccc3cc2C(=O)O)NC1=O (stereo not drawn) [Imazaquin] | 400 | 16000 | 40 | 40 | 1 |  |  |  |  |  | 
COc1nc(C)nc(NC(=O)NS(=O)(=O)c2ccccc2Cl)n1 [Chlorsulfuron] | 10000 | 25000 | 2.5 | 25000 | 10000 | >1000 | 10,000 fold | 1 | 0.07 | 20 | R/S (Sur; listed as chlorsulfuron): > 1000 X; reduction of whole plant resistance of the SB double mutant (93R30B [4]; SB double mutant compared with Sur single mutant, whole plant): more than 50 fold
Cc1ccn2nc(S(=O)(=O)Nc3c(F)cccc3F)nc2n1 [Flumetsulam] | 60 | 1700 | 28 | 1100 | 40 |  | 60 fold |  |  |  | resistance of the ALS enzyme (ALS extracts from 93R30B): 200 X; resistance of the ALS enzyme (ALS enzyme from Sir-13): 3 X; resistance of the ALS enzyme (ALS enzyme from Sur): 50 X
CCc1cnc(C2=NC(C)(C(C)C)C(=O)N2)c(C(=O)O)c1 (stereo not drawn) [Imazethapyr] | 3600 | 64000 | 18 | 53 | 3 | 3 | 3600 fold | 100 | 0.5 | 300 | resistance of the ALS enzyme (ALS extracts from 93R30B): > 1000 X; level of resistance at the enzyme level (ALS extracts from 93R30B; ratio of I50's for the resistant (93R30B, heterozygous F1) and sensitive (Rel-1) lines): 1750 fold; resistance of the ALS enzyme (ALS enzyme from Sir-13): 40 X; resistance (Sur; Sur single mutant, postemergence to whole plants): 3 fold; level of resistance (EL-49; EL-49 in shoot culture, 30240 min): 3 fold; cell survival (sensitive cells): all sensitive cells died; resistance (Sir-13; Sir-13 single mutant, postemergence to whole plants): 100 fold; resistance of the ALS enzyme (ALS enzyme from Sur): 1 X; resistance (93R30B [4]; SB double mutant, postemergence to whole plants): 300 fold
COCc1cnc(C2=NC(C)(C(C)C)C(=O)N2)c(C(=O)O)c1 (stereo not drawn) [AC299,263] | 1400 | 40000 | 30 | 70 | 3 | 4 |  | 130 | 1.1 | >250 | 
Imazamethabenzmethyl | > 125 |  |  |  | 25 |  |  |  |  |  | IC50 (93R30B [1]): > 100000 nM; IC50 (Rel-1 [2]): 800 nM; IC50 (EL-49): 20000 nM
Cc1cc(C)nc(NC(=O)NS(=O)(=O)c2ccccc2C(=O)O)n1 [Sulfometuron] |  |  |  |  |  | 23 |  | 1 | 0.2 | 4 | 
